Test results published in patent publication US6673827B1, “Methods of treating fungal infections with inhibitors of NAD synthetase enzyme” (priority 1999, dated 2004).
In brackets after ≈: the same amount, converted by molar mass. Where two headings read alike, the source gives them in different places.

What was measured:
[1] = target: T1, NAD synthetase (recombinant protein from B. subtilis; purified) (Bacillus subtilis, UniProt P08164); experiment: NAD synthetase enzyme inhibition assay (coupled enzymatic assay, HTS); type: biochemical; details: IC50 (μg/mL) for Inhibit. of NAD Synthetase, table of structures used in the yeast assay (Example 4)
T1 construct: made in house
Description: NAD Synthetase Enzyme Inhibition Assay-Determination of Test Compound Concentrations Providing 50% Inhibition ([…]) of the Maximum Enzyme Rate
The potential inhibitory activity of the synthetic compounds was determined by the use of a coupled enzymatic assay. The coupled assay involves two steps as summarized below. [drawing 98]
The measurement of inhibitory activities of the test compounds was facilitated by the use of a high through-put screening system (HTS system). The HTS system utilizes an integrated Sagian 2M ORCA robotic system coordinating the functions of a Beckman Biomek 2000 liquid handler and a Molecular Devices SpectraMax Plus spectrophotometer. The 2M ORCA robotic station is responsible for the movement of all hardware and the integration of multiple stations on the worksurface. The Biomek 2000 is programmed to perform all phases of liquid dispensing and mixing. The SpectraMax Plus spectrophotometer is equipped to monitor absorbance in a 96-well plate format.
The Biomek 2000 mixes these components utilizing a predefined mixing program. […] The reaction is monitored by measuring the increase in absorbance at 340 nm (NADH). The linear portion of the reaction is monitored for 180 sec. The initial velocity is determined using Softmax Pro, the software supplied with the Molecular Devices SpectrMax Plus spectrophotometer.
The test compounds were supplied as a stock solution with a concentration of 50 mM dissolved in 100% dimethyl sulfoxide (DMSO). An initial screen was conducted on all compounds using a 2 or 3 concentration screen. The 2 panel screen used concentrations of 0.2 mM and 0.1 mM for the compounds. The 3 panel screen used concentrations of 0.2 mM, 0.1 mM, and 0.05 mM. […] The IC50 values for each compound were determined graphically from a plot of % inhibition versus […].

[2] = tested on: Candida tropicalis ATCC 750; experiment: In vitro study of inhibition of growth and lethality against yeast (MIC/MLC susceptibility test), isolate A; type: cell-based; details: Candida tropicalis, 2nd pair of lines, isolate assigned by line order; for MFC: ATCC750, read-out: Minimum Lethal Conc. (MLC)
[3] = tested on: Candida tropicalis ATCC 28707; experiment: In vitro study of inhibition of growth and lethality against yeast (MIC/MLC susceptibility test), isolate B; type: cell-based; details: Candida tropicalis, 1st pair of lines, isolate assigned by line order; for MFC: ATCC28707, read-out: Minimum Lethal Conc. (MLC)
[4] = tested on: Candida albicans KJP-000531594; experiment: In vitro study of inhibition of growth and lethality against yeast (MIC/MLC susceptibility test), isolate C; type: cell-based; details: Candida albicans, Candida albicans, 1st pair of lines; for MFC: KJP000531594, read-out: Minimum Lethal Conc. (MLC)
[5] = tested on: Candida albicans LH-000664533; experiment: In vitro study of inhibition of growth and lethality against yeast (MIC/MLC susceptibility test), isolate D; type: cell-based; details: Candida albicans, 2nd pair of lines, isolate assigned by line order; for MFC: LH000664533, read-out: Minimum Lethal Conc. (MLC)
[6] = tested on: Torulopsis glabrata JHC-BC9951635; experiment: In vitro study of inhibition of growth and lethality against yeast (MIC/MLC susceptibility test), isolate E; type: cell-based; details: Torulopsis glabrata, 2nd pair of lines, isolate assigned by line order; for MIC / MFC: Nakaseomyces glabratus; for MFC: JHCBC9951635, read-out: Minimum Lethal Conc. (MLC)
[7] = tested on: Torulopsis glabrata ERH-BC9938274; experiment: In vitro study of inhibition of growth and lethality against yeast (MIC/MLC susceptibility test), isolate F; type: cell-based; details: Torulopsis glabrata, 1st pair of lines, isolate assigned by line order; for MIC / MFC: Nakaseomyces glabratus; for MFC: ERHBC9938274, read-out: Minimum Lethal Conc. (MLC)
[8] = tested on: Cryptococcus neoformans DLB-1027594CNC; experiment: In vitro study of inhibition of growth and lethality against yeast (MIC/MLC susceptibility test), isolate G; type: cell-based; details: Cryptococcus neoformans, 1st pair of lines, isolate assigned by line order; for MIC / MFC: DLB1027594CNC; for MFC: read-out: Minimum Lethal Conc. (MLC)
[9] = tested on: Cryptococcus neoformans SLP-BC0012854; experiment: In vitro study of inhibition of growth and lethality against yeast (MIC/MLC susceptibility test), isolate H; type: cell-based; details: Cryptococcus neoformans, 2nd pair of lines, isolate assigned by line order; for MFC: SLPBC0012854, read-out: Minimum Lethal Conc. (MLC)
[10] = ATCC750, 24 h, read at 24 hr, read-out: Minimum Inhibitory Conc. (MIC), 24 hr.
[11] = ATCC750, 48 h, read at 48 hr, read-out: Minimum Inhibitory Conc. (MIC), 48 hr.
[12] = ATCC28707, 24 h, read at 24 hr, read-out: Minimum Inhibitory Conc. (MIC), 24 hr.
[13] = ATCC28707, 48 h, read at 48 hr, read-out: Minimum Inhibitory Conc. (MIC), 48 hr.
[14] = KJP000531594, 24 h, read at 24 hr, isolate not given, assigned by line order and MLC of Table 4B, read-out: Minimum Inhibitory Conc. (MIC), 24 hr.
[15] = KJP000531594, 48 h, read at 48 hr, isolate assigned by line order, read-out: Minimum Inhibitory Conc. (MIC), 48 hr.
[16] = LH000664533, 24 h, read at 24 hr, read-out: Minimum Inhibitory Conc. (MIC), 24 hr.
[17] = LH000664533, 48 h, read at 48 hr, read-out: Minimum Inhibitory Conc. (MIC), 48 hr.
[18] = JHCBC9951635, 24 h, read at 24 hr, read-out: Minimum Inhibitory Conc. (MIC), 24 hr.
[19] = JHCBC9951635, 48 h, read at 48 hr, read-out: Minimum Inhibitory Conc. (MIC), 48 hr.
[20] = ERHBC9938274, 24 h, read at 24 hr, read-out: Minimum Inhibitory Conc. (MIC), 24 hr.
[21] = ERHBC9938274, 48 h, read at 48 hr, read-out: Minimum Inhibitory Conc. (MIC), 48 hr.
[22] = 48 h, read at 48 hr, read-out: Minimum Inhibitory Conc. (MIC), 48 hr.
[23] = 72 h, read at 72 hr, read-out: Minimum Inhibitory Conc. (MIC), 72 hr.
[24] = SLPBC0012854, 48 h, read at 48 hr, read-out: Minimum Inhibitory Conc. (MIC), 48 hr.
[25] = SLPBC0012854, 72 h, read at 72 hr, read-out: Minimum Inhibitory Conc. (MIC), 72 hr.

T1 sequence (P08164 whole entry): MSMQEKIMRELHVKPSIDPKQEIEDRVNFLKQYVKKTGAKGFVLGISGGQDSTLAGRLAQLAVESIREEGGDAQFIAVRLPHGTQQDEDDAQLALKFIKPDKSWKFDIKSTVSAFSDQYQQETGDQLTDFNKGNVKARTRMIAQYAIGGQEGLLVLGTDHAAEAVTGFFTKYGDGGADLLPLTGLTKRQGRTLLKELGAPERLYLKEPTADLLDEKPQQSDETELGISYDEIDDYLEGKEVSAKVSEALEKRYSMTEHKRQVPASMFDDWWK

Structure (SMILES) | IC50 [1] [µM] | MFC [2] [µg/mL] | MIC [2, 10] [µg/mL] | MIC [2, 11] [µg/mL] | MFC [3] [µg/mL] | MIC [3, 12] [µg/mL] | MIC [3, 13] [µg/mL] | MIC [4, 14] [µg/mL] | MIC [4, 15] [µg/mL] | MFC ([4]; isolate assigned by line order) [µg/mL] | MIC [5, 16] [µg/mL] | MIC [5, 17] [µg/mL] | MFC [5] [µg/mL] | MIC [6, 18] [µg/mL] | MIC [6, 19] [µg/mL] | MFC [6] [µg/mL] | MIC [7, 20] [µg/mL] | MIC [7, 21] [µg/mL] | MFC [7] [µg/mL] | MIC [8, 23] [µg/mL] | further results
C[N+](C)(C)C(Cc1ccccc1)C(=O)OCCCCCCCCOc1ccc(OCc2ccccc2)cc1.[I-] (centres unmarked) [Compound 1230] | 31 | 1 | 1 | 1 | 1 | 0.5 | 0.5 | 1 | 2 | 2 | 2 | 4 | 2 | 1 | 2 | 2 | 2 | 2 | 2 | 1 | Minimum Inhibitory Conc. (MIC), 24 hr. ([5]; read at 24 hr): 1 µg/mL; Minimum Inhibitory Conc. (MIC), 48 hr. ([5]; read at 48 hr): 2 µg/mL; Minimum Inhibitory Conc. (MIC), 24 hr. ([6]; read at 24 hr): 2 µg/mL; Minimum Inhibitory Conc. (MIC), 48 hr. ([8]; read at 48 hr): 0.5 µg/mL; Minimum Inhibitory Conc. (MIC), 72 hr. ([8]; read at 72 hr): 2 µg/mL; MIC [8, 22]: 1 µg/mL; MFC [8]: 4 µg/mL; Minimum Inhibitory Conc. (MIC), 72 hr. ([9]; read at 72 hr): 2 µg/mL; MIC [9, 24]: 1 µg/mL; MIC [9, 25]: 1 µg/mL; MFC [9]: 4 µg/mL
C[N+](C)(C)C(CCc1ccccc1)C(=O)OCCCCCCCCOc1ccc(OCc2ccccc2)cc1.[I-] (centres unmarked) [Compound 1260] | 45.5 | 2 | 2 | 2 | 1 | 1 | 1 | 2 | 2 | 2 | 2 | 2 | 4 | 2 | 2 | 2 | 2 | 2 | 2 | 1 | MIC [8, 22]: 1 µg/mL; MFC [8]: 2 µg/mL; MIC [9, 24]: 1 µg/mL; MIC [9, 25]: 1 µg/mL; MFC [9]: 2 µg/mL
COC(=O)c1cc2cc(OCc3ccccc3)ccc2n1CCCCCCCOC(=O)c1ccc(CN(C)C)cc1 [Compound 1096] | 180 | > 32 | > 32 | > 32 | 16 (≈ 28.7 µM) | 4 (≈ 7.19 µM) | 8 (≈ 14.4 µM) | > 32 | > 32 | > 32 | > 32 | > 32 | > 32 | > 32 | > 32 | > 32 | > 32 | > 32 | > 32 | > 32 | Minimum Inhibitory Conc. (MIC), 24 hr. ([3]; read at 24 hr): 2 µg/mL; Minimum Inhibitory Conc. (MIC), 48 hr. ([3]; read at 48 hr): 16 µg/mL; Minimum Inhibitory Conc. (MIC), 72 hr. ([8]; read at 72 hr): 16 µg/mL; MFC [8]: > 32 µg/mL; Minimum Inhibitory Conc. (MIC), 48 hr. ([9]; read at 48 hr): 32 µg/mL; Minimum Inhibitory Conc. (MIC), 72 hr. ([9]; read at 72 hr): 32 µg/mL; MIC [9, 24]: > 32 µg/mL; MIC [9, 25]: > 32 µg/mL; MFC [9]: > 32 µg/mL
C[N+](C)(C)c1ccc(CCCC(=O)OCCCCCCCCOc2ccc(OCc3ccccc3)cc2)cc1.[I-] [Compound 1200] | 53.1 | 1 | 2 | 2 | 1 | 1 | 1 | 2 | 2 | 2 | 2 | 2 | 2 | 1 | 1 | 1 | 1 | 2 | 2 | 2 | Minimum Inhibitory Conc. (MIC), 24 hr. ([2]; read at 24 hr): 1 µg/mL; Minimum Inhibitory Conc. (MIC), 48 hr. ([2]; read at 48 hr): 1 µg/mL; MIC [8, 22]: 2 µg/mL; MFC [8]: 4 µg/mL; MIC [9, 24]: 2 µg/mL; MIC [9, 25]: 2 µg/mL; MFC [9]: 4 µg/mL
Cc1[nH]c2ccccc2c1/C=C/C1=[N+](C)c2ccccc2C1(C)C.[Cl-] [Compound 1400] | > 570 | > 32 | > 32 | > 32 | 16 | 16 | 32 | > 32 | > 32 | > 32 | > 32 | > 32 | > 32 | > 33 | > 32 | > 32 | > 34 | > 32 | > 32 | > 32 | Minimum Inhibitory Conc. (MIC), 48 hr. ([3]; read at 48 hr): 16 µg/mL; Minimum Inhibitory Conc. (MIC), 24 hr. ([6]; read at 24 hr): >32 µg/mL; Minimum Inhibitory Conc. (MIC), 24 hr. ([7]; read at 24 hr): >32 µg/mL; MIC [8, 22]: > 32 µg/mL; MFC [8]: > 32 µg/mL; MIC [9, 24]: > 32 µg/mL; MIC [9, 25]: > 32 µg/mL; MFC [9]: > 32 µg/mL
